From patent US20080287430A1, “Furan Compounds Useful As Ep1 Receptor Antagonists” (priority 2005, published 2008)
Counter-ions that a name gives are not always drawn.

molecular target: T1, human EP1 receptor (Homo sapiens, UniProt P34995); assay: human EP1 calcium mobilisation assay; format: cell-based; conditions: human EP1, PGE2-induced calcium mobilisation in CHO-K1 cells; free bases or sodium salts; averages of a number of experiments; read-out: functional pKi value (converted)
T1 construct: expressed in transfected cells; host or cells: CHO-K1
T1 sequence (P34995 1-402): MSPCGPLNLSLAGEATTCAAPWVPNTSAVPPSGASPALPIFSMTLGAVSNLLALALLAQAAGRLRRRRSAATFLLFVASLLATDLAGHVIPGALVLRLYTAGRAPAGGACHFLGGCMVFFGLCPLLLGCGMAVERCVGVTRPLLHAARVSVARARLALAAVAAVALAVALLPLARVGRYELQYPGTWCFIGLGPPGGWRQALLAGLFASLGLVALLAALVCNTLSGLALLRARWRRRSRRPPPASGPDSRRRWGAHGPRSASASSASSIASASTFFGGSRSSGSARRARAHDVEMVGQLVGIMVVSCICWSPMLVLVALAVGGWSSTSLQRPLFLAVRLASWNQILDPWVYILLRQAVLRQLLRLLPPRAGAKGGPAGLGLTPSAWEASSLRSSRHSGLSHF
Procedure: Briefly, the antagonist properties of compounds are assessed by their ability to inhibit the mobilisation of intracellular calcium ([Ca^2+]i) in response to activation of EP1 or EP3 receptors by the natural agonist hormone prostaglandin E2 (PGE2). Increasing concentrations of antagonist reduce the amount of calcium that a given concentration of PGE2 can mobilise. The net effect is to displace the PGE2 concentration-effect curve to higher concentrations of PGE2. The amount of calcium produced is assessed using a calcium-sensitive fluorescent dye such as Fluo-4, AM and a suitable instrument such as a Fluorimetric Imaging Plate Reader (FLIPR). Increasing amounts of [Ca^2+]i produced by receptor activation increase the amount of fluorescence produced by the dye and give rise to an increasing signal. The signal may be detected using the FLIPR instrument and the data generated may be analysed with suitable curve-fitting software.
The human EP1 or EP3 calcium mobilisation assay (hereafter referred to as ‘the calcium assay’) utilises Chinese hamster ovary-K1(CHO-K1) cells into which a stable (pCIN; BioTechniques 20 (1996): 102-110) vector containing either EP1 or EP3 cDNA has previously been transfected. Cells are cultured in suitable flasks containing culture medium such as DMEM:F-12 supplemented with 10% v/v foetal calf serum, 2 mM L-glutamine, 0.25 mg/ml geneticin, 100 μM flurbiprofen and 10 μg/ml puromycin.
For assay, cells are harvested using a proprietary reagent that dislodges cells such as Versene. Cells are re-suspended in a suitable quantity of fresh culture media for introduction into a 384-well plate. Following incubation for 24 hours at 37° C. the culture media is replaced with a medium containing Fluo-4 and the detergent pluronic acid, and a further incubation takes place. Concentrations of compounds are then added to the plate in order to construct concentration-effect curves. This may be performed on the FLIPR in order to assess the agonist properties of the compounds. Concentrations of PGE2 are then added to the plate in order to assess the antagonist properties of the compounds.
The data so generated may be analysed by means of a computerised curve-fitting routine. The concentration of compound that elicits a half-maximal inhibition of the calcium mobilisation induced by PGE2 (pIC50) may then be estimated.

Ki	SMILES
> 1 µM	CC(C)COc1ccc(Cl)cc1Cc1ccc(-c2nc3cc(Br)cnc3[nH]2)o1 [Example 135, 6-Bromo-2-[5-({5-chloro-2-[(2-methylpropyl)oxy]phenyl}methyl)-2-furanyl]-1H-imidazo[4,5-b]pyridine hydrochloride]
< 1 µM	Cc1ccc2[nH]c(-c3ccc(Cc4cc(Cl)ccc4OCC(C)C)o3)nc2c1 [Example 125, 2-[5-({5-Chloro-2-[(2-methylpropyl)oxy]phenyl}-methyl)-2-furanyl]-5-methyl-1H-benzimidazole]
< 1 µM	CC(C)CNC(=O)c1ccc(Cc2cc(Cl)ccc2OCc2ccccc2)o1 [Example 50, 5-({5-Chloro-2-[(phenylmethyl)oxy]phenyl}methyl)-N-(2-methylpropyl)-2-furancarboxamide]
< 1 µM	O=C(Nc1c(F)cccc1F)c1ccc(Cc2cc(Cl)ccc2OCc2cccc(F)c2F)o1 [Example 87, 5-[(5-Chloro-2-{[(2,3-difluorophenyl)methyl]oxy}-phenyl)methyl]-N-(2,6-difluorophenyl)-2-furancarboxamide]
< 1 µM	CC(C)COc1ccc(Cl)cc1Cc1ccc(C(=O)NCc2ccc(Cl)cc2)o1 [Example 41, 5-({5-Chloro-2-[(2-methylpropyl)oxy]phenyl}methyl)-N-[(4-chlorophenyl)methyl]-2-furancarboxamide]
< 1 µM	CC(C)COc1ccc(Cl)cc1Cc1ccc(NC(=O)OC(C)(C)C)o1 [Example 29, 1,1-Dimethylethyl[5-({5-chloro-2-[(2-methylpropyl)oxy]phenyl}methyl)-2-furanyl]carbamate]
< 1 µM	CC(C)COc1ccc(Cl)cc1Cc1ccc(-c2nc3cc(C(C)(C)C)ccc3[nH]2)o1 [Example 127, 2-[5-({5-Chloro-2-[(2-methylpropyl)oxy]phenyl}-methyl)-2-furanyl]-5-(1,1-dimethylethyl)-1H-benzimidazole]
< 1 µM	Clc1ccc(OCc2ccccc2)c(Cc2ccc(-c3nc4cscc4[nH]3)o2)c1 [Example 101, 2-[5-({5-Chloro-2-[(phenylmethyl)oxy]phenyl}methyl)-2-furanyl]-1H-thieno[3,4-d]imidazole]
< 1 µM	CC(C)COc1ccc(Cl)cc1Cc1ccc(C(=O)Nc2ccccc2)o1 [Example 34, 5-({5-Chloro-2-[(2-methylpropyl)oxy]phenyl}methyl)-N-phenyl-2-furancarboxamide]
< 1 µM	O=C(O)c1ccc(Cc2cc(Cl)ccc2OCc2cccnc2)o1 [Example 27, Sodium 5-({5-chloro-2-[(3-pyridinylmethyl)oxy]phenyl}methyl)-2-furancarboxylate]
< 1 µM	CC(C)(C)CNC(=O)c1ccc(Cc2cc(Cl)ccc2OCc2ccccc2)o1 [Example 52, 5-({5-Chloro-2-[(phenylmethyl)oxy]phenyl}methyl)-N-(2,2-dimethylpropyl)-2-furancarboxamide]
< 1 µM	Cc1cc(NC(=O)OC(C)(C)C)oc1Cc1cc(Cl)ccc1OCC(C)C [Example 30, 1,1-Dimethylethyl[5({5-chloro-2-[(2-methylpropyl)oxy]phenyl}methyl)-4-methyl-2-furanyl]carbamate]
< 1 µM	O=C(Nc1ccccc1F)c1ccc(Cc2cc(Cl)ccc2OCc2ccccc2)o1 [Example 69, 5-({5-Chloro-2-[(phenylmethyl)oxy]-phenyl}methyl)-N-(2-fluorophenyl)-2-furancarboxamide]
< 1 µM	CCCOc1ccc(Cl)cc1Cc1ccc(C(=O)Nc2c(F)cccc2F)o1 [Example 93, 5-{[5-Chloro-2-(propyloxy)phenyl]methyl}-N-(2,6-difluorophenyl)-2-furancarboxamide]
< 1 µM	O=C(Nc1c(F)cccc1F)c1ccc(Cc2cc(Cl)ccc2OCC2CCCCC2)o1 [Example 96, 5-({5-Chloro-2-[(cyclohexylmethyl)oxy]-phenyl}methyl)-N-(2,6-difluorophenyl)-2-furancarboxamide]
< 1 µM	CC(C)COc1ccc(Cl)cc1Cc1ccc(C(=O)n2cnc3ccccc32)o1 [Example 67, 1-{[5-({5-Chloro-2-[(2-methylpropyl)oxy]-phenyl}methyl)-2-furanyl]carbonyl}-1H-benzimidazole]

Ki	SMILES
< 1 µM	O=C(Nc1c(F)cccc1F)c1ccc(Cc2cc(Cl)ccc2OCc2ccccc2F)o1 [Example 81, 5-[(5-Chloro-2-{[(2-fluorophenyl)methyl]oxy}phenyl)methyl]-N-(2,6-difluorophenyl)-2-furancarboxamide]
> 1 µM	CC(C)COc1ccc(Cl)cc1Cc1ccc(-c2nc3cccc(CO)c3[nH]2)o1 [Example 134, {2-[5-({5-chloro-2-[(2-methylpropyl)oxy]phenyl}methyl)-2-furanyl]-1H-benzimidazol-4-yl}methanol]
< 1 µM	CCCOc1ccc(Cl)cc1Cc1ccc(C(=O)O)o1 [Example 1, Sodium 5-{[5-chloro-2-(propyloxy)phenyl]methyl}-2-furancarboxylate]
< 1 µM	O=C(Nc1ccccc1Br)c1ccc(Cc2cc(Cl)ccc2OCc2ccccc2)o1 [Example 76, N-(2-bromophenyl)-5-({5-chloro-2-[(phenylmethyl)oxy]-phenyl}methyl)-2-furancarboxamide]
< 1 µM	COc1ccc(CNC(=O)c2ccc(Cc3cc(Cl)ccc3OCC(C)C)o2)cc1 [Example 40, 5-({5-Chloro-2-[(2-methylpropyl)oxy]phenyl}methyl)-N-{[4-(methyloxy)phenyl]methyl}-2-furancarboxamide]
< 1 µM	CN1CCN(Cc2cccc3nc(-c4ccc(Cc5cc(Cl)ccc5OCc5ccccc5)o4)[nH]c23)CC1 [Example 160, 2-[5-({5-Chloro-2-[(phenylmethyl)oxy]-phenyl}methyl)-2-furanyl]-4-[(4-methyl-1-piperazinyl)methyl]-1H-benzimidazolehydrochloride]
< 1 µM	CC(C)NC(=O)c1ccc(Cc2cc(Cl)ccc2OCc2ccccc2)o1 [Example 49, 5-({5-Chloro-2-[(phenylmethyl)oxy]phenyl}methyl)-N-(1-methylethyl)-2-furancarboxamide]
< 1 µM	CC(C)COc1ccc(Cl)cc1Cc1ccc(-c2nc3ccc(CN4CCOCC4)cc3[nH]2)o1 [Example 144, 2-[5-({5-Chloro-2-[(2-methylpropyl)oxy]-phenyl}methyl)-2-furanyl]-5-(4-morpholinylmethyl)-1H-benzimidazoledihydrochloride]
< 1 µM	CC(C)COc1ccc(Cl)cc1Cc1ccc(-c2nc3cc(F)ccc3[nH]2)o1 [Example 122, 2-[5-({5-Chloro-2-[(2-methyipropyl)oxy]phenyl}methyl)-2-furanyl]-5-fluoro-1H-benzimidazole]
< 1 µM	CC(C)COc1ccc(Cl)cc1Cc1ccc(-c2nc3cc(CN4CCCC4)cnc3[nH]2)o1 [Example 165, 2-[5-({5-Chloro-2-[(2-methylpropyl)oxy]-phenyl}methyl)-2-furanyl]-6-(1-pyrrolidinylmethyl)-1H-imidazo[4,5-b]pyridinedihydrochloride]
< 1 µM	O=C(Nc1ccccc1)c1ccc(Cc2cc(Cl)ccc2OCc2ccccc2)o1 [Example 70, 5-({5-Chloro-2-[(phenylmethyl)oxy]-phenyl}methyl)-N-phenyl-2-furancarboxamide]
< 1 µM	Clc1ccc(OCc2ccccc2)c(Cc2ccc(-c3nc4ccc(CN5CCCCC5)cc4[nH]3)o2)c1 [Example 141, 2-[5-({5-Chloro-2-[(phenylmethyl)oxy]-phenyl}methyl)-2-furanyl]-5-(1-piperidinylmethyl)-1H-benzimidazoledihydrochloride]
< 1 µM	CC(C)COc1ccc(Cl)cc1Cc1ccc(C(=O)NCc2ccc3c(c2)OCO3)o1 [Example 39, N-(1,3-Benzodioxol-5-ylmethyl)-5-({5-chloro-2-[(2-methylpropyl)oxy]phenyl}methyl)-2-furancarboxamide]
< 1 µM	CC(C)Oc1ccc(Cl)cc1Cc1ccc(C(=O)O)o1 [Example 2, Sodium 5-({5-chloro-2-[(1-methylethyl)oxy]phenyl}methyl)-2-furancarboxylate]
≤ 0.01 µM	CC(C)COc1ccc(Cl)cc1Cc1ccc(-c2ncc[nH]2)o1 [Example 167, 2-[5-({5-Chloro-2-[(2-methylpropyl)oxy]phenyl}methyl)-2-furanyl]-1H-imidazole]
